Experimental findings from publication PMC4529246 (PLoS ONE, 2015) are described below.

Assay in all cases: cell-based
The target of assay [1] is T1, system xc- (H4) (Homo sapiens, UniProt Q9UPY5).
T1 construct: gene SLC7A11; native endogenous transporter in intact H4 neuroglioma cells
T1 sequence (Q9UPY5 1-501): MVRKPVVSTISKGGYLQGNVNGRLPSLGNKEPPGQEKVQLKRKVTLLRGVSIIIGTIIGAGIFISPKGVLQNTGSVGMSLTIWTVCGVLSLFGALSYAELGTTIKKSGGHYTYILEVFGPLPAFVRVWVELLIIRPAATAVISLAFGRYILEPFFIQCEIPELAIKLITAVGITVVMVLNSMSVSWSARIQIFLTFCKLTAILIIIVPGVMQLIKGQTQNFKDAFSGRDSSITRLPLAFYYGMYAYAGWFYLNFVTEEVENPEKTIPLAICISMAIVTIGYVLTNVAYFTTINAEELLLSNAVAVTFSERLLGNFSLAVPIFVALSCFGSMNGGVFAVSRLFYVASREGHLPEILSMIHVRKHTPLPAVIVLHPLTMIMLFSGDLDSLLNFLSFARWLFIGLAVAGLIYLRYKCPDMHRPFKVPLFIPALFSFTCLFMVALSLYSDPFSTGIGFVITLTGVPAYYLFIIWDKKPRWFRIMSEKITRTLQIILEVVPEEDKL
T1 sequence (P08195 1-529 partner): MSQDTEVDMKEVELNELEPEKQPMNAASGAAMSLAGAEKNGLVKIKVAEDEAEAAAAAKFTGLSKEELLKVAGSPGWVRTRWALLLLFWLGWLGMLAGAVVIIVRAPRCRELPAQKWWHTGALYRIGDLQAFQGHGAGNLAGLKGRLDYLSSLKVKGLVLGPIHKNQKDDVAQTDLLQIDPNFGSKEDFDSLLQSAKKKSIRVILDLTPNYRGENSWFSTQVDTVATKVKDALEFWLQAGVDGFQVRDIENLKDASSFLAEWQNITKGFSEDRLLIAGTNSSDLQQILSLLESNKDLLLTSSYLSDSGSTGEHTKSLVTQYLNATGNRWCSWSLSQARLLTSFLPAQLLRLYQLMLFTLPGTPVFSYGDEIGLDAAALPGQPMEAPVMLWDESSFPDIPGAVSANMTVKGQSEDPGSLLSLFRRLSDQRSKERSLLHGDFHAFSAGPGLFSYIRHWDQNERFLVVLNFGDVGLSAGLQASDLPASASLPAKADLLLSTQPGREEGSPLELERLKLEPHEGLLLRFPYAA
More on the design: cystine-induced glutamate release inhibition, 30 min, PBS with Na+. As to conditions: PBS (+Na+), 30 min; read-out: Glutamate Release H4. On the procedure:
Early characterization of the cystine-induced glutamate release assay was carried out in the 96-well format and later adapted to the 384-well format. Briefly, CCF-STTG-1 cells were seeded at 0.04 x 10^6 cells per 96-well and grown to confluence. […] Cells were maintained for 2h at 37°C in an incubator with 5% CO2. At the end of the incubation period, cystine-induced glutamate release was measured directly. The assay was further characterized for the dependence of cystine-induced glutamate release on protein content (mg/ml) and the time of incubation. […] Cells were maintained at 37°C in an incubator with 5% CO2 and the glutamate released over a 2h period measured. Identical protocols were followed for IC50 determinations using UB or PBS with CCF-STTG-1, neuroglioma (H4) or fibroblast (IMR-90) cells. U-87 MG cells were seeded at 0.06 x 10^6 cells per 96-well (in 0.3 ml growth media) and tested on Day2. When running the assay in the 384-well format, CCF-STTG-1 cells were seeded at 0.01 x 10^6 cells per well (in 0.025 ml growth media) and grown to confluence. […] Cells were maintained for 3h at 37°C in an incubator with 5% CO2. At the end of the incubation period, cystine-induced glutamate release was measured directly. […]

Assay [2] concerns the target T2, system xc- (IMR90) (Homo sapiens, UniProt Q9UPY5).
T2 construct: gene SLC7A11; native endogenous transporter in intact IMR-90 fibroblasts
T2 sequence (Q9UPY5 1-501): T1 sequence (Q9UPY5 1-501)
T2 sequence (P08195 1-529 partner): T1 sequence (P08195 1-529 partner)
On the set-up: species or system IMR-90; cystine-induced glutamate release inhibition, 30 min, PBS with Na+. As to conditions: PBS (+Na+), 30 min; read-out: Glutamate Release IMR90. On the procedure:
Early characterization of the cystine-induced glutamate release assay was carried out in the 96-well format and later adapted to the 384-well format. Briefly, CCF-STTG-1 cells were seeded at 0.04 x 10^6 cells per 96-well and grown to confluence. […] Cells were maintained for 2h at 37°C in an incubator with 5% CO2. At the end of the incubation period, cystine-induced glutamate release was measured directly. The assay was further characterized for the dependence of cystine-induced glutamate release on protein content (mg/ml) and the time of incubation. […] Cells were maintained at 37°C in an incubator with 5% CO2 and the glutamate released over a 2h period measured. Identical protocols were followed for IC50 determinations using UB or PBS with CCF-STTG-1, neuroglioma (H4) or fibroblast (IMR-90) cells. U-87 MG cells were seeded at 0.06 x 10^6 cells per 96-well (in 0.3 ml growth media) and tested on Day2. When running the assay in the 384-well format, CCF-STTG-1 cells were seeded at 0.01 x 10^6 cells per well (in 0.025 ml growth media) and grown to confluence. […] Cells were maintained for 3h at 37°C in an incubator with 5% CO2. At the end of the incubation period, cystine-induced glutamate release was measured directly. The rates of [^14C]-cystine influx and cystine-induced glutamate efflux were closely examined using CCF-STTG-1 (grade IV astrocytoma) cells in order to understand the reasons for the lower IC50 values and longer time-dependence in the cystine-induced glutamate release assay. […] The experiments were repeated also using IMR-90 fibroblast cells derived from normal embryonic lung and a second cancer line, the H4 neuroglioma cells. […] (DOCX) Click here for additional data file.

Assay [3] addresses T1, system xc- (H4). More on the design: [14C]-cystine uptake inhibition, 2 min, PBS with Na+, scintillation counting. As to conditions: PBS (+Na+), 2 min. On the procedure: Early characterization work was carried out in a 12-well format and the assay later adapted and characterized in the 96-well format. Briefly, CCF-STTG-1 cells were seeded at 0.04 x 10^6 cells per well in 0.2 ml growth media and grown to confluence. […] After 15 min, uptake was terminated by three washes (115 μl/well) with ice-cold UB. Cells were then lysed with 0.1 N NaOH (100 μl/well) and the radioactivity in the cells measured using scintillant-coated 96-well plates (PerkinElmer: 6005630) and normalized to protein contents. The assay was further characterized for the dependence of ^14C-cystine uptake on protein content (mg/ml) and the time and temperature of incubation. To determine IC50 values, CCF-STTG-1 cells were similarly seeded and grown to confluence. On day 3, transport was initiated upon the addition of pre-warmed (37°C) [^14C]-cystine 80 μM (5.631 μCi/μmol) in Earle’s Balanced Salt Solution (EBSS, Sigma: E3024, contents in mM: NaCl 116.4, NaHCO3 26.2, NaH2PO4 1.02, KCl 5.36, MgSO4 0.81, CaCl2 1.8 and Glucose 5.56, pH 7.4) in the presence and absence of inhibitors. […]

For assay [4], the target named is T2, system xc- (IMR90). More on the design: species or system IMR-90; [14C]-cystine uptake inhibition, 2 min, PBS with Na+, scintillation counting. As to conditions: PBS (+Na+), 2 min. The method, then: Early characterization work was carried out in a 12-well format and the assay later adapted and characterized in the 96-well format. Briefly, CCF-STTG-1 cells were seeded at 0.04 x 10^6 cells per well in 0.2 ml growth media and grown to confluence. […] Cells were then lysed with 0.1 N NaOH (100 μl/well) and the radioactivity in the cells measured using scintillant-coated 96-well plates (PerkinElmer: 6005630) and normalized to protein contents. The assay was further characterized for the dependence of ^14C-cystine uptake on protein content (mg/ml) and the time and temperature of incubation. To determine IC50 values, CCF-STTG-1 cells were similarly seeded and grown to confluence. On day 3, transport was initiated upon the addition of pre-warmed (37°C) [^14C]-cystine 80 μM ([…], Sigma: E3024, contents in mM: NaCl 116.4, NaHCO3 26.2, NaH2PO4 1.02, KCl 5.36, MgSO4 0.81, CaCl2 1.8 and Glucose 5.56, pH 7.4) in the presence and absence of inhibitors. […] Identical protocols were followed for IC50 determinations using UB or phosphate buffered saline (PBS; contents in mM: S1 Table) with […] The rates of [^14C]-cystine influx and cystine-induced glutamate efflux were closely examined using CCF-STTG-1 (grade IV astrocytoma) cells in order to understand the reasons for the lower IC50 values and longer time-dependence in the cystine-induced glutamate release assay. […]

Where two headings read alike, the source gives them in different places.

In the case of `N[C@@H](C(=O)O)c1ccc(C(=O)O)cc1` [(R)-4CPG], the IC50 at system xc- (H4) [1] and on system xc- (IMR90) [2] was more than 100 µM throughout.

Regarding `N[C@H](C(=O)O)c1ccc(C(=O)O)cc1` [(S)-4CPG], the IC50 at system xc- (H4) [3] is 20 ± 0.4 µM; at system xc- (IMR90) [2], 2 ± 0.4 µM.

For `O=C(O)c1cc(/N=N/c2ccc(S(=O)(=O)Nc3ccccn3)cc2)ccc1O` [SAS], on system xc- (IMR90) [2], the IC50 was determined as 3 ± 0.2 µM.

On to `N[C@@H](CCC(=O)O)C(=O)O` [glutamate], for which the results for the IC50 on system xc- (H4) [3] and against system xc- (IMR90) [4] were 200 ± 20 µM and 200 ± 3 µM, respectively.
